One block for each compound: values may come before it.
Columns and labels:
fibronectin receptor [1] = target: T1, fibronectin receptor (Homo sapiens, UniProt P05556+P08648); test: Attachment of fibronectin receptor liposomes to fibronectin-coated wells in the presence of cations; format: binding; design: from tissue; host or cells: human placenta; conditions: for fibronectin receptor liposome attachment, result in words: compared with Ca²⁺, Ca²⁺ and Mg²⁺, or absence of Ca²⁺ or Mg²⁺; for % Attachment: cations 1 mM, percentage of control attachment in 1 mM CaCl₂ and 1 mM MgCl₂, mean and standard error, three experiments
T1 sequence (P08648 42-894 limits assumed): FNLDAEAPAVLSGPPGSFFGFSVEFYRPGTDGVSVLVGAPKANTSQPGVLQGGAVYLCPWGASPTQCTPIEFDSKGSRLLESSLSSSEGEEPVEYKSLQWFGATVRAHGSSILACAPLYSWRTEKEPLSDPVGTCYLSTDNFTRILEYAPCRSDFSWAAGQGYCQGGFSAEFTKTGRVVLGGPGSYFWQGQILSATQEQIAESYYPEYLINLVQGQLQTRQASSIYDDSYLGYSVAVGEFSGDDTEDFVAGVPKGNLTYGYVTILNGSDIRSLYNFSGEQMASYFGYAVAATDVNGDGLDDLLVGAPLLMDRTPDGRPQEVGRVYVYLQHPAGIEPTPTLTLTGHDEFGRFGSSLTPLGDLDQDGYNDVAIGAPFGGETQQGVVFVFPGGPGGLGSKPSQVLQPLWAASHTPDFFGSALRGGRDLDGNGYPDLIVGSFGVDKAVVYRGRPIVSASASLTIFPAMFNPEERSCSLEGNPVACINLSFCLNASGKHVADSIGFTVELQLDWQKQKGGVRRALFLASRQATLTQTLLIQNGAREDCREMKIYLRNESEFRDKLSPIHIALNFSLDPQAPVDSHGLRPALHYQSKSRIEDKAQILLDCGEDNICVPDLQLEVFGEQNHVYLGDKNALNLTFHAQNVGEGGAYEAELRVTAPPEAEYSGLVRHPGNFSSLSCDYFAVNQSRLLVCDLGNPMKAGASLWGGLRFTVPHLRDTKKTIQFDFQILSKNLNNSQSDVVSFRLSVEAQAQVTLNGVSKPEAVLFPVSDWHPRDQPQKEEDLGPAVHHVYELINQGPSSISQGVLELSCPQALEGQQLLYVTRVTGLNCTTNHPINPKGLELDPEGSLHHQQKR
T1 sequence (P08648 895-1049 partner limits assumed): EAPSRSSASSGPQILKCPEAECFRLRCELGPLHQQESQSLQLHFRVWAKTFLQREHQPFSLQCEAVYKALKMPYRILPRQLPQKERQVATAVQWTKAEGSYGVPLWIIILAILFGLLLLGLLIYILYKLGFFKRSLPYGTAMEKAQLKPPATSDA
T1 sequence (P05556 21-798): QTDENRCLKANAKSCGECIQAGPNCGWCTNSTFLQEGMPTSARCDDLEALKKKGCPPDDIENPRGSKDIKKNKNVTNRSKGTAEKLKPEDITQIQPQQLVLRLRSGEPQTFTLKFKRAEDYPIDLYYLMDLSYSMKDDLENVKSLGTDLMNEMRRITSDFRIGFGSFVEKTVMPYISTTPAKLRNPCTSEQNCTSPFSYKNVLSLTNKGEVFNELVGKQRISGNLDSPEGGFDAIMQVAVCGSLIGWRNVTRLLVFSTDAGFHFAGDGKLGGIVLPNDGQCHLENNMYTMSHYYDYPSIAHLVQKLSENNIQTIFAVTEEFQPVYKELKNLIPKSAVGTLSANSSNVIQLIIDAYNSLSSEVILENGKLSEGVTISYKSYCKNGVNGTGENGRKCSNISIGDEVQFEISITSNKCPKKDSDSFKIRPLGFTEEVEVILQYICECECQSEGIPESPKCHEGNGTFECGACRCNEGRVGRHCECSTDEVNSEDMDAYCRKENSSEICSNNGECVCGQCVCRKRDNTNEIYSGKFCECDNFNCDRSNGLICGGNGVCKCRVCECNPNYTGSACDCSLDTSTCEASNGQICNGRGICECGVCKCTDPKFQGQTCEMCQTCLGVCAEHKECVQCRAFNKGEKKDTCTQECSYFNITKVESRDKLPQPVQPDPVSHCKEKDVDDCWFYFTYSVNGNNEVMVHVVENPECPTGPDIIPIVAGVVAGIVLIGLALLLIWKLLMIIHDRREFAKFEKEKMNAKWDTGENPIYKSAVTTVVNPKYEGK
Text: The effect of cations on the binding of the fibronectin receptor to its ligand was studied by incorporating the receptor into liposomes and measuring receptor liposome attachment to a fibronectin-coated surface in the presence of various cations.
(§1) Fibronectin receptors were purified from human placenta by affinity chromatography on a 110 kDa chymotryptic fragment of fibronectin, according to the methods of Pytela et al., Cell 40:191 (1985), and Pytela et al., Meth. Enzymol. 144:475-489 (1987), with the following modifications. The 110 kDa fragment corresponds to the 120 kDa fragment described in Pytela et al. (1985), supra. […] Briefly, homogenized placental tissue was washed once with 2 volumes of cold TBS containing 1 mM CaCl₂, 1 mM MgCl₂ and 3 mM phenylmethyl sulfonyl fluoride (PMSF), centrifuged, and the pellet was extracted with 1 volume of cold TBS containing 100 mM octyl-β-D-glucopyranoside (Calbiochem, La Jolla, CA), and calcium, magnesium, and PMSF as in Pytela et al., (1985) supra. The clear extract was slowly applied at 4°C, first to a column of plain Sepharose, and then to 110 kDa fibronectin fragment-Sepharose. […] Bound receptor was eluted with the wash buffer containing 20 mM EDTA in place of calcium and magnesium. Eluted receptor was used immediately for the preparation of receptor liposomes or stored frozen. In some experiments, 1 mM MnCl₂ was substituted for CaCl₂ and MgCl₂ throughout the isolation procedure.
Aliquots of the receptor liposome preparation were mixed with the indicated cations (1 mM) and the attachment of the liposomes to microtiter wells coated with fibronectin was assayed. The results are expressed as a percentage of control attachment, which was measured in the presence of 1 mM CaCl₂ and 1 mM MgCl₂. Mean and standard error from three experiments are shown.

[2] = target: T2, Fibronectin receptor (FNR) (Homo sapiens, UniProt P05556+P08648); test: Inhibition by Gd3+ of fibronectin receptor liposome attachment; format: binding; conditions: for % Inhibition FNR: 1 mM CaCl₂ and 1 mM MgCl₂
T2 construct: from tissue; host or cells: human placenta
T2 sequence (P08648 42-894 limits assumed): as the sequence (P08648 42-894 limits assumed) above
T2 sequence (P08648 895-1049 partner limits assumed): as the sequence (P08648 895-1049 partner limits assumed) above
T2 sequence (P05556 21-798): as the sequence (P05556 21-798) above
Procedure: (§2) The ability of Gd³⁺ to inhibit the binding of integrins was assayed in the liposome attachment system. Fibronectin receptor (FNR) and vitronectin receptor (VNR) liposomes were prepared by dialysis against TBS containing 1 mM CaCl₂ and 1 mM MgCl₂. Aliquots of GdCl₃ were added to the liposomes at the start of the assay. […] Such situations include binding of inflammatory cells at the site of a tissue injury caused by, for example, an ischemic episode, such as is associated with a cardiac or brain infarct.

[3] = target: T3, vitronectin receptor (VNR) (Homo sapiens, UniProt P05106+P06756); test: Inhibition by Gd3+ of vitronectin receptor liposome attachment; format: binding; conditions: for % Inhibition VNR: 1 mM CaCl₂ and 1 mM MgCl₂
T3 construct: Vitronectin receptor was purified from human placenta; from tissue; host or cells: human placenta
T3 sequence (P06756 31-889 limits assumed): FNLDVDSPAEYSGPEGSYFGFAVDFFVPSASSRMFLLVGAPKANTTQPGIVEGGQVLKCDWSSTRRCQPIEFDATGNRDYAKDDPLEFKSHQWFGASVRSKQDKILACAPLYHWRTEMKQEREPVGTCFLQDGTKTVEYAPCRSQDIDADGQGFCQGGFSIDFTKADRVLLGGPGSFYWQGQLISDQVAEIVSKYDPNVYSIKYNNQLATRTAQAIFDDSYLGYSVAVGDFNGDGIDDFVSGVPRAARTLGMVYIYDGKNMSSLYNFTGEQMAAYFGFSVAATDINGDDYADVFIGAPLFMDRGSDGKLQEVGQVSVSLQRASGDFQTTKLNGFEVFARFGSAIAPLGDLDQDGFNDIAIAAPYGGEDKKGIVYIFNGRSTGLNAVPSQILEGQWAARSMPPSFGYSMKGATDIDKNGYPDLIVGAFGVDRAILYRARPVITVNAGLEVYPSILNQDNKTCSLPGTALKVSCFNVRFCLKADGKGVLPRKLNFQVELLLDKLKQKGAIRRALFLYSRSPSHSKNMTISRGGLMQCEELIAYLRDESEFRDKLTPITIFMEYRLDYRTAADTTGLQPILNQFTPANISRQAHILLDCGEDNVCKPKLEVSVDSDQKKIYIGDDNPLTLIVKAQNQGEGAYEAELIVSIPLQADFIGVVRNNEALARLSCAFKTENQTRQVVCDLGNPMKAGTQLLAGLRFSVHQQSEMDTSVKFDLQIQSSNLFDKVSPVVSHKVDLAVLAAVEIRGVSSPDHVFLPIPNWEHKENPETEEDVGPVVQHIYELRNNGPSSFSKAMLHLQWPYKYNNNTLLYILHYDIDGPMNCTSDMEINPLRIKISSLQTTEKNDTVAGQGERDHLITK
T3 sequence (P06756 891-1048 partner limits assumed): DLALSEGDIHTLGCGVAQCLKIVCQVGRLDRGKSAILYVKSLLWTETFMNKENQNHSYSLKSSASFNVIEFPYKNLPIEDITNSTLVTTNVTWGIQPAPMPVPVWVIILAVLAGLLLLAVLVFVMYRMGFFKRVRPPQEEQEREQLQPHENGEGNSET
T3 sequence (P05106 27-788): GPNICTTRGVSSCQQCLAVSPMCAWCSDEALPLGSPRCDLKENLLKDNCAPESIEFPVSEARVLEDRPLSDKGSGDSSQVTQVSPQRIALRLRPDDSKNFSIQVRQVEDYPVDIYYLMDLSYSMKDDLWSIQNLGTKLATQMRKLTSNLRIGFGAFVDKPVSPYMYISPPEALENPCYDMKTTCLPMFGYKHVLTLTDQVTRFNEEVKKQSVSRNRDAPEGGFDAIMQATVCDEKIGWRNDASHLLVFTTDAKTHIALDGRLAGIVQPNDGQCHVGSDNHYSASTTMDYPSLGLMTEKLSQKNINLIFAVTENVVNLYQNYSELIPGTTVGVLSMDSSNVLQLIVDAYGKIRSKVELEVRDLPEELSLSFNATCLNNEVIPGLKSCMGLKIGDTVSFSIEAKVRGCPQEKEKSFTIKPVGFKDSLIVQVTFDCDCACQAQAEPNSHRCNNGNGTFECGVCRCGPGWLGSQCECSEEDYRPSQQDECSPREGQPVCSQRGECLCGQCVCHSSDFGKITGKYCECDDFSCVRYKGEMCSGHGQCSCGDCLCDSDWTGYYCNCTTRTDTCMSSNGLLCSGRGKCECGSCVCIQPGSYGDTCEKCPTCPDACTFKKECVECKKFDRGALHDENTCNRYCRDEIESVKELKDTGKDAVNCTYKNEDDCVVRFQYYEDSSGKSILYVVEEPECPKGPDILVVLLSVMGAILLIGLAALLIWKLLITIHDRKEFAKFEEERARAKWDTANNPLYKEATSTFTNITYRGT
Procedure: as §2

Vitronectin receptor = target: T4, Vitronectin receptor (Homo sapiens, UniProt P05106+P06756); test: Vitronectin receptor liposome attachment to vitronectin; format: binding; conditions: a number of liposome attachment assays
T4 construct: Vitronectin receptor was purified from human placenta; from tissue; host or cells: human placenta
T4 sequence (P06756 31-889 limits assumed): as the sequence (P06756 31-889 limits assumed) above
T4 sequence (P06756 891-1048 partner limits assumed): as the sequence (P06756 891-1048 partner limits assumed) above
T4 sequence (P05106 27-788): as the sequence (P05106 27-788) above
Procedure: Vitronectin receptor was purified from human placenta as described in Example I for the fibronectin receptor, but a different affinity matrix containing the peptide Gly-Arg-Gly-Asp-Ser-Pro-Lys was employed. The peptide was synthesized with an Applied Biosystems Model 430A, according to the manufacturer's instructions. Vitronectin receptor was isolated according to the method of Example I in the presence of 1 mM Ca²⁺ and 1mM Mg²⁺ or in 1 mM Ca²⁺ alone. In a number of liposome attachment assays, Mn²⁺ enhanced the binding of this integrin to vitronectin by 20-50% over the binding measured in Ca²⁺ and Mg²⁺.

Type I collagen receptor = Type I collagen receptor liposome binding to collagen; design: species or system human
Text: Type I collagen receptor was also isolated from placenta, employing the method given in Example I with the following modifications. Mn²⁺ was used in the chromatography buffers for this procedure, and the affinity matrix contained Type I collagen.

A375M cells [4] = test: In vitro wound model of cell migration on ligand-coated cell-free lanes; format: cell-based, human; conditions: 100 µM MnCl₂ in media with Ca²⁺ and Mg²⁺; spaces coated with fibronectin and Type IV collagen; versus controls
Procedure: An in vitro wounding assay was developed to test the effects of Mn²⁺ on cell migration into a wounded (cell free) area that was coated with various adhesion proteins. This assay allowed the determination of the specific ligands and the respective receptors that are involved in the migration process. More specifically, this assay was used to test cell migration on various substrates in the presence of Mn²⁺. A375M cells were grown to confluency in 6 well culture dishes (Corning, New York, NY). A specially designed comb which scratches out 4-2mm wide lanes was used to make a crossing pattern in the cell layer, removing the cells. The cell-free lanes were then coated for 1 hour at 37°C with one of the following ligands: fibronectin, vitronectin, Type I or Type IV collagen, bovine serum albumin or laminin. These proteins were dissolved in PBS at a concentration of 10µg/ml and then added directly to the wounded cell layer.
Standard Culture Media containing Ca²⁺ and Mg²⁺ and 100 µM MnCl₂ was added to the culture dishes while control dishes had the same media without Mn²⁺. Cell migration was monitored by visualization.

fibronectin receptor [5] = target: T1, fibronectin receptor; conditions: Mn²⁺ versus Ca²⁺/Mg²⁺
A375M cells [6] = system: A375M cells
fibronectin receptor [7] = target: T1, fibronectin receptor; test: Yield of fibronectin receptor from affinity chromatography on 110 kDa fibronectin fragment, densitometry of SDS-PAGE; design: from tissue; host or cells: human placenta
Procedure: as §1
Fibronectin receptor can be isolated by affinity chromatography on the 110 kDa fibronectin fragment (See Pytela, et al., (1985), (1987), supra). […]

fibronectin receptor [8] = target: T1, fibronectin receptor; test: Attachment of fibronectin receptor liposomes to fibronectin-coated wells in the presence of cations; format: binding; design: from tissue; host or cells: human placenta; conditions: for binding of fibronectin receptor liposomes to fibronectin, multiple of binding measured in Ca²⁺ alone: in 1mM Ca²⁺; for binding of fibronectin receptor liposomes to fibronectin, multiple of binding measured in Ca²⁺ alone / binding of fibronectin receptor liposomes to fibronectin, multiple of binding measured in Mg²⁺ alone: mean and standard error, two experiments; for binding of fibronectin receptor liposomes to fibronectin, multiple of binding measured in Mg²⁺ alone: in 1mM Mg²⁺

Compound: [Ba+2] [Ba²⁺]
- fibronectin receptor liposome attachment, result in words (fibronectin receptor [1]): produced less attachment than Ca²⁺, but did support fibronectin receptor attachment above the level found in the absence of either Ca²⁺ or Mg²⁺

Compound: [Be+2] [Be²⁺]
- fibronectin receptor liposome attachment, result in words (fibronectin receptor [1]): produced less attachment than Ca²⁺, but did support fibronectin receptor attachment above the level found in the absence of either Ca²⁺ or Mg²⁺

- % Attachment (fibronectin receptor [1]): 75 ± 10%
Compound: [Ca+2].[Cl-].[Cl-] [Ca²⁺, CaCl₂, reference compound]

Compound: [Cd+2] [Cd²⁺]
- % Attachment (fibronectin receptor [1]): 130 ± 30%
- fibronectin receptor liposome attachment, result in words (fibronectin receptor [1]): increased the percentage of attachment above that obtained in the presence of Ca²⁺ and Mg²⁺

Compound: [Co+2] [Co²⁺]
- % Attachment (fibronectin receptor [1]): 150 ± 13%
- fibronectin receptor liposome attachment, result in words (fibronectin receptor [1]): increased the percentage of attachment above that obtained in the presence of Ca²⁺ and Mg²⁺

Compound: [Cu+2] [Cu²⁺]
- fibronectin receptor liposome attachment, result in words (fibronectin receptor [1]): produced increased attachment above that found in the absence of Ca²⁺ or Mg²⁺ in at least one experiment

Compound: [Fe+2] [Fe²⁺]
- fibronectin receptor liposome attachment, result in words (fibronectin receptor [1]): produced less attachment than Ca²⁺, but did support fibronectin receptor attachment above the level found in the absence of either Ca²⁺ or Mg²⁺

- % Inhibition FNR ([2]; Gd³⁺ 0.1 mM): 8%
- % Inhibition FNR ([2]; Gd³⁺ 0.3 mM): 61%
- % Inhibition FNR ([2]; Gd³⁺ 1 mM): 91%
- % Inhibition FNR ([2]; Gd³⁺ 3 mM): 87%
- attachment of fibronectin receptor to its ligand, result in words ([2]; concentrations above 0.3 mM): significant decrease in attachment
- % Inhibition VNR ([3]; Gd³⁺ 0.1 mM): 0%
- % Inhibition VNR ([3]; Gd³⁺ 0.3 mM): 59%
- % Inhibition VNR ([3]; Gd³⁺ 1 mM): 93%
- % Inhibition VNR ([3]; Gd³⁺ 3 mM): 100%
- attachment of vitronectin receptor to its ligand, result in words ([3]; concentrations above 0.3 mM): significant decrease in attachment
Compound: [Cl][Gd]([Cl])[Cl] [Gd³⁺, GdCl₃]
- fibronectin receptor liposome attachment, result in words (fibronectin receptor [1]): produced increased attachment above that found in the absence of Ca²⁺ or Mg²⁺ in at least one experiment

Compound: [La+3] [La³⁺]
- fibronectin receptor liposome attachment, result in words (fibronectin receptor [1]): produced increased attachment above that found in the absence of Ca²⁺ or Mg²⁺ in at least one experiment

- % Attachment (fibronectin receptor [1]): 110 ± 5%
Compound: [Cl-].[Cl-].[Mg+2] [Mg²⁺, MgCl₂, reference compound]

Compound: [Cl][Mn][Cl] [Mn²⁺, MnCl₂]
- enhancement of binding to vitronectin over the binding measured in Ca²⁺ and Mg²⁺ (Vitronectin receptor): 20-50%
- binding of Type I collagen receptor liposomes to collagen, result in words (Type I collagen receptor): clear and specific binding to collagen
- migration into cell-free spaces, result in words (A375M cells [4]): augmented migration
- factor of increase of the relative affinity of the receptor for the fragment (fibronectin receptor [5]; ligand 110 kDa fibronectin fragment): 4.5
- factor of increase of the relative receptor affinity for the peptide (fibronectin receptor [5]; ligand GRGDSP): 50
- increase in invasion / migration of cells (A375M cells [6]; 100 µM MnCl₂, after 72 hours): 30%
- effect on cell viability and migration (A375M cells [6]; concentrations higher than 100 µM): cell viability is affected and therefore migration is reduced
- % Attachment (fibronectin receptor [1]): 210 ± 29%
- binding of receptor isolated with Mn²⁺ in the liposome attachment assay, Mn²⁺ versus Ca²⁺/Mg²⁺ (fibronectin receptor [1]; receptor isolated with Mn²⁺): several times higher
- yield of receptor with Mn²⁺ relative to Ca²⁺ and Mg²⁺ (fibronectin receptor [7]; 1 mM Mn²⁺ substituted for Ca²⁺/Mg²⁺, estimated by densitometry): four-fold higher
- Receptor Peak Area (fibronectin receptor [7]; cations 1 mM in chromatography buffers, Coomassie blue gels scanned): 18.2
- binding of fibronectin receptor liposomes to fibronectin, multiple of binding measured in Ca²⁺ alone (fibronectin receptor [8]; 0.01 mM Mn²⁺ added): 1.23 ± 0.66
- binding of fibronectin receptor liposomes to fibronectin, multiple of binding measured in Mg²⁺ alone (fibronectin receptor [8]; 0.01 mM Mn²⁺ added): 0.97 ± 0.17
- binding of fibronectin receptor liposomes to fibronectin, multiple of binding measured in Ca²⁺ alone (fibronectin receptor [8]; 0.1mM Mn²⁺ added): 4.41 ± 0.33
- binding of fibronectin receptor liposomes to fibronectin, multiple of binding measured in Mg²⁺ alone (fibronectin receptor [8]; 0.1mM Mn²⁺ added): 2.04 ± 0.08
- binding of fibronectin receptor liposomes to fibronectin, multiple of binding measured in Ca²⁺ alone (fibronectin receptor [8]; 1 mM Mn²⁺ added): 5.78 ± 0.47
- binding of fibronectin receptor liposomes to fibronectin, multiple of binding measured in Mg²⁺ alone (fibronectin receptor [8]; 1 mM Mn²⁺ added): 3.12 ± 0.10
- concentration at which liposome attachment was promoted (as low as) (fibronectin receptor [8]; cation titration, Figure 1): 3 µM

Compound: [Ni+2] [Ni²⁺]
- % Attachment (fibronectin receptor [1]): 100 ± 12%
- fibronectin receptor liposome attachment, result in words (fibronectin receptor [1]): as effective as the combination of Ca²⁺ and Mg²⁺

Compound: [Sr+2] [Sr²⁺]
- fibronectin receptor liposome attachment, result in words (fibronectin receptor [1]): produced increased attachment above that found in the absence of Ca²⁺ or Mg²⁺ in at least one experiment

- attachment, % of the control value (fibronectin receptor [1]; one similar assay): 128%
Compound: [Zn+2] [Zn²⁺]
